# Data as given in patent US20100298141A1, “SUBSTITUTED PYRIDINE N-OXIDE HERBICIDES” (E. I. DU PONT DE NEMOURS AND COMPANY, priority 2007, published 2010).
# How the values were obtained:
# Experiment in all cases: Test F preemergence test
# Conditions in all cases: scale 0 to 100
# [1] = system: common mallow; type: in vivo, Malva sylvestris
# Method in brief: (§1)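 Preemergence application to planted seeds, or postemergence to sugarcane plants; compound in non-phytotoxic solvent mix plus surfactant. Greenhouse, 14-21 days. Visual rating vs. controls.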
# [2] = system: field bindweed; type: in vivo, Convolvulus arvensis
# Method in brief: as §1
# [3] = system: annual bluegrass; type: in vivo, Poa annua
# Method in brief: as §1
# [4] = system: Surinam grass; type: in vivo, Brachiaria decumbens
# Method in brief: as §1
# [5] = system: green foxtail; type: in vivo, Setaria viridis
# Method in brief: as §1
# [6] = system: large crabgrass; type: in vivo, Digitaria sanguinalis
# Method in brief: as §1
# [7] = system: Canada horseweed; type: in vivo, Conyza canadensis
# Description: Seeds of plant species selected from bermudagrass (Cynodon dactylon), Surinam grass (Brachiaria decumbens), large crabgrass (Digitaria sanguinalis), green foxtail (Setaria viridis), goosegrass (Eleusine indica), johnsongrass (Sorghum halepense), kochia (Kochia scoparia), pitted morningglory (Ipomoea lacunosa), purple nutsedge (Cyperus rotundus), common ragweed (Ambrosia elation), mustard (Brassica nigra), guineagrass (Panicum maximum), […] (Paspalum dilatatum), barnyardgrass (Echinochloa crus-galli), southern sandbur (Cenchrus echinatus), common sowthistle (Sonchus oleraceous), prickly […] spinosa), Italian ryegrass (Lolium multiflorum), common purslane (Portulaca oleracea), broadleaf signalgrass (Brachiaria platyphylla), common groundsel (Senecio vulgaris), common chickweed (Stellaria media), Virginia dayflower (Commelina virginica), annual bluegrass (Poa annua), naked crabgrass (Digitaria nuda), […] cochinchinensis), quackgrass (Elytrigia repens), Canada horseweed (Conyza canadensis), field bindweed (Convolvulus arvensis), […] (Bidens bipinnata), common mallow (Malva sylvestris), Russian thistle (Salsola kali), and sugarcane (Saccharum officinarum) were planted and treated preemergence with test chemicals formulated in a non-phytotoxic solvent mixture which included a surfactant. At a different time, sugarcane was treated with postemergence applications of some of the test chemicals formulated in the same manner. Plants were approximately 3- to 4-leaf stage for the postemergence treatments. Treated plants and controls were maintained in a greenhouse for 14 to 21 days, after which time all species were compared to controls and visually evaluated. […] A dash (-) response means no test result.
# [8] = system: naked crabgrass; type: in vivo, Digitaria nuda
# Method in brief: as §1
# [9] = system: common purslane; type: in vivo, Portulaca oleracea
# Method in brief: as §1
# [10] = system: mustard; type: in vivo, Brassica nigra
# Method in brief: as §1
# [11] = system: guineagrass; type: in vivo, Panicum maximum
# Method in brief: as §1
# [12] = system: southern sandbur; type: in vivo, Cenchrus echinatus
# Method in brief: as §1
# [13] = system: barnyardgrass; type: in vivo, Echinochloa crus-galli
# Method in brief: as §1
# [14] = system: common ragweed; type: in vivo, Ambrosia elation
# Method in brief: as §1
# [15] = system: bermudagrass; type: in vivo, Cynodon dactylon
# Method in brief: as §1
# [16] = system: quackgrass; type: in vivo, Elytrigia repens
# Method in brief: as §1
# [17] = system: prickly sida; type: in vivo, Sida spinosa
# Method in brief: as §1
# [18] = system: pitted morningglory; type: in vivo, Ipomoea lacunosa
# Method in brief: as §1
# [19] = system: common chickweed; type: in vivo, Stellaria media
# Method in brief: as §1
# [20] = system: Italian ryegrass; type: in vivo, Lolium multiflorum
# Method in brief: as §1
compound,measurement,setting,value
Cc1cc[n+]([O-])c(S(=O)(=O)Cc2c(C(F)(F)F)nn(C)c2Cl)c1 [Compound 19],Mallow plant response rating,"[1]; 62 g ai/ha, Preemergence",0
same,Mallow plant response rating,"[1]; 125 g ai/ha, preemergence",40
same,"Plant response rating, Mallow","[1]; Preemergence, 16 g ai/ha",0
same,"Plant response rating, Mallow","[1]; Preemergence, 31 g ai/ha",0
same,Field Bindweed plant response rating,"[2]; 62 g ai/ha, Preemergence",0
same,Field Bindweed plant response rating,"[2]; 125 g ai/ha, preemergence",15
same,"Plant response rating, Field Bindweed","[2]; Preemergence, 16 g ai/ha",0
same,"Plant response rating, Field Bindweed","[2]; Preemergence, 31 g ai/ha",0
same,Bluegrass plant response rating,"[3]; 62 g ai/ha, Preemergence",0
same,Bluegrass plant response rating,"[3]; 125 g ai/ha, preemergence",95
same,"Plant response rating, Bluegrass","[3]; Preemergence, 16 g ai/ha",0
same,"Plant response rating, Bluegrass","[3]; Preemergence, 31 g ai/ha",0
same,Surinam Grass plant response rating,"[4]; 62 g ai/ha, Preemergence",75
same,Surinam Grass plant response rating,"[4]; 125 g ai/ha, preemergence",90
same,"Plant response rating, Surinam Grass","[4]; Preemergence, 31 g ai/ha",30
same,"Foxtail, Green plant response rating","[5]; 62 g ai/ha, Preemergence",75
same,"Foxtail, Green plant response rating","[5]; 125 g ai/ha, preemergence",90
same,"Plant response rating, Foxtail, Green","[5]; Preemergence, 16 g ai/ha",0
same,"Plant response rating, Foxtail, Green","[5]; Preemergence, 31 g ai/ha",50
same,"Crabgrass, Large plant response rating","[6]; 62 g ai/ha, Preemergence",80
same,"Crabgrass, Large plant response rating","[6]; 125 g ai/ha, preemergence",95
same,"Plant response rating, Crabgrass, Large","[6]; Preemergence, 16 g ai/ha",35
same,"Plant response rating, Crabgrass, Large","[6]; Preemergence, 31 g ai/ha",50
same,Horseweed plant response rating,"[7]; 62 g ai/ha, Preemergence",0
same,Horseweed plant response rating,"[7]; 125 g ai/ha, preemergence",100
same,"Plant response rating, Horseweed","[7]; Preemergence, 16 g ai/ha",0
same,"Plant response rating, Horseweed","[7]; Preemergence, 31 g ai/ha",0
same,"Crabgrass, Naked plant response rating","[8]; 62 g ai/ha, Preemergence",100
same,"Crabgrass, Naked plant response rating","[8]; 125 g ai/ha, preemergence",100
same,"Plant response rating, Crabgrass, Naked","[8]; Preemergence, 16 g ai/ha",70
same,"Plant response rating, Crabgrass, Naked","[8]; Preemergence, 31 g ai/ha",70
same,Purslane plant response rating,"[9]; 62 g ai/ha, Preemergence",0
same,Purslane plant response rating,"[9]; 125 g ai/ha, preemergence",0
same,"Plant response rating, Purslane","[9]; Preemergence, 16 g ai/ha",0
same,"Plant response rating, Purslane","[9]; Preemergence, 31 g ai/ha",0
same,Black Mustard plant response rating,"[10]; 62 g ai/ha, Preemergence",100
same,Black Mustard plant response rating,"[10]; 125 g ai/ha, preemergence",100
same,"Plant response rating, Black Mustard","[10]; Preemergence, 16 g ai/ha",0
same,"Plant response rating, Black Mustard","[10]; Preemergence, 31 g ai/ha",20
same,Guineagrass plant response rating,"[11]; 62 g ai/ha, Preemergence",100
same,Guineagrass plant response rating,"[11]; 125 g ai/ha, preemergence",100
same,"Plant response rating, Guineagrass","[11]; Preemergence, 16 g ai/ha",50
same,"Plant response rating, Guineagrass","[11]; Preemergence, 31 g ai/ha",80
same,Sandbur plant response rating,"[12]; 62 g ai/ha, Preemergence",90
same,Sandbur plant response rating,"[12]; 125 g ai/ha, preemergence",100
same,"Plant response rating, Sandbur","[12]; Preemergence, 31 g ai/ha",60
same,Barnyardgrass plant response rating,"[13]; 62 g ai/ha, Preemergence",90
same,Barnyardgrass plant response rating,"[13]; 125 g ai/ha, preemergence",98
same,"Plant response rating, Barnyardgrass","[13]; Preemergence, 16 g ai/ha",70
same,"Plant response rating, Barnyardgrass","[13]; Preemergence, 31 g ai/ha",80
same,Ragweed plant response rating,"[14]; 62 g ai/ha, Preemergence",50
same,Ragweed plant response rating,"[14]; 125 g ai/ha, preemergence",80
same,"Plant response rating, Ragweed","[14]; Preemergence, 16 g ai/ha",0
same,"Plant response rating, Ragweed","[14]; Preemergence, 31 g ai/ha",25
same,Bermudagrass plant response rating,"[15]; 62 g ai/ha, Preemergence",60
same,Bermudagrass plant response rating,"[15]; 125 g ai/ha, preemergence",95
same,"Plant response rating, Bermudagrass","[15]; Preemergence, 16 g ai/ha",0
same,"Plant response rating, Bermudagrass","[15]; Preemergence, 31 g ai/ha",40
same,Quackgrass plant response rating,"[16]; 62 g ai/ha, Preemergence",40
same,Quackgrass plant response rating,"[16]; 125 g ai/ha, preemergence",60
same,"Plant response rating, Quackgrass","[16]; Preemergence, 16 g ai/ha",0
same,"Plant response rating, Quackgrass","[16]; Preemergence, 31 g ai/ha",0
same,Prickly Sida plant response rating,"[17]; 62 g ai/ha, Preemergence",30
same,Prickly Sida plant response rating,"[17]; 125 g ai/ha, preemergence",60
same,"Plant response rating, Prickly Sida","[17]; Preemergence, 16 g ai/ha",0
same,"Plant response rating, Prickly Sida","[17]; Preemergence, 31 g ai/ha",20
same,Morningglory plant response rating,"[18]; 62 g ai/ha, Preemergence",0
same,Morningglory plant response rating,"[18]; 125 g ai/ha, preemergence",0
same,"Plant response rating, Morningglory","[18]; Preemergence, 16 g ai/ha",0
same,"Plant response rating, Morningglory","[18]; Preemergence, 31 g ai/ha",0
same,Chickweed plant response rating,"[19]; 62 g ai/ha, Preemergence",0
same,Chickweed plant response rating,"[19]; 125 g ai/ha, preemergence",75
same,"Plant response rating, Chickweed","[19]; Preemergence, 16 g ai/ha",0
same,"Plant response rating, Chickweed","[19]; Preemergence, 31 g ai/ha",0
same,"Ryegrass, Italian plant response rating","[20]; 62 g ai/ha, Preemergence",50
same,"Ryegrass, Italian plant response rating","[20]; 125 g ai/ha, preemergence",65
same,"Plant response rating, Ryegrass, Italian","[20]; Preemergence, 16 g ai/ha",0
same,"Plant response rating, Ryegrass, Italian","[20]; Preemergence, 31 g ai/ha",10
